Laboratory results: article PMC3434972 (Bioorganic & medicinal chemistry letters, 2011)
Numbering of substitutions follows the chain as printed. Read-outs that look alike come from different tables or passages of the source. Each block holds one compound with its values, some of them ahead of it.

Assays:
[1] = molecular target: T1, hM1 (Homo sapiens, UniProt P11229); assay: hM1 antagonist calcium mobilization assay; format: cell-based; conditions: for fold loss in potency/activity relative to ML012: hM1, versus ML012; for hM1 antagonist activity in words: highest concentration tested 30 μM
T1 sequence (P11229 1-460): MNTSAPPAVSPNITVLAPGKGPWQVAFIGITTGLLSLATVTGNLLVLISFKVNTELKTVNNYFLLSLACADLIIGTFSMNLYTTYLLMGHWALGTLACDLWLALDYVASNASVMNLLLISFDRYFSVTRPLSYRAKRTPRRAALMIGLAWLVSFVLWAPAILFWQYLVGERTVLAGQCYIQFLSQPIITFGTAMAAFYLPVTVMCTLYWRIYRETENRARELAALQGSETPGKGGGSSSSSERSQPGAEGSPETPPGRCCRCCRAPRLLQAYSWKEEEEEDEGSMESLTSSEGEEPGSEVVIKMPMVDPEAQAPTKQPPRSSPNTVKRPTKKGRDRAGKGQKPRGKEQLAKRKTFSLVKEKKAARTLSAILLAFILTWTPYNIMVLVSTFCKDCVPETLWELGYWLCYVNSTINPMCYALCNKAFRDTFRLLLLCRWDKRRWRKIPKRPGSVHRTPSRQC

[2] = test system: rat M1–5 receptors; assay: selectivity across the rat mAChRs, calcium mobilization assay; format: cell-based; conditions: Figure 4
[3] = rat pharmacokinetics and CNS exposure; format: in vivo; conditions: dosed orally at 10 mg/kg
[4] = molecular target: T2, rM1 (Rattus norvegicus, UniProt P08482); assay: rat M1 antagonist calcium mobilization assay; format: cell-based
T2 sequence (P08482 1-460): T1 sequence (P11229 1-460) with A5V, T254S, P309S, R320K, A337G, I413V

[5] = in vitro DMPK prediction of clearance; format: in vitro ADME
[6] = molecular target: T1, hM1; conditions: read-out: IC50 for ML012 previously reported; cited from earlier work
[7] = test system: contextual freezing; conditions: at doses that reduced seizures; cited from earlier work
[8] = test system: pilocarpine-induced seizures; conditions: rodent models; cited from earlier work

Compound: O=C(CCNS(=O)(=O)c1cccc2nsnc12)N1CCN(c2ccccn2)CC1 [Compound 6d]
fold loss in potency/activity relative to ML012 [1]: roughly 14 fold

Compound: O=S(=O)(NCCCN1CCN(c2ccncc2)CC1)c1cccc2nsnc12 [Compound 7]
fold loss in potency/activity relative to ML012 [1]: greater than 14 fold

Compound: O=C(C(F)CNS(=O)(=O)c1cccc2nonc12)N1CCN(c2ccncc2)CC1 (stereo not shown) [Compound 9]
fold decrease in potency relative to 13b ([1]; hM1, versus 13b): roughly 2 fold

Compound: C[C@H](CC(=O)N1CCN(c2ccncc2)CC1)NS(=O)(=O)c1cccc2nonc12 [Compound 10]
hM1 antagonist activity in words [1]: completely inactive

Compound: CN(CCC(=O)N1CCN(c2ccncc2)CC1)S(=O)(=O)c1cccc2nsnc12 [Compound 12]
fold loss in potency/activity relative to ML012 [1]: greater than 14 fold

Compound: O=C(CCNS(=O)(=O)c1cccc2nsnc12)N1CCN(c2ccncc2)CC1 [ML012]
IC50 [6]: 132 nM
deficits in contextual freezing [7]: did not induce deficits in contextual freezing
selectivity for the M1 receptor over the M2–5 subtypes [2]: selectively antagonize the M1 mAChR relative to the M2–5 mAChRs
effect on pilocarpine-induced seizures [8]: reduced pilocarpine-induced seizures
EC50 [4]: 240 nM

Other lines, results leading:

fold decrease in activity relative to sulfur analog 6j ([1]; hM1, versus 6j): 3 fold
Compound: O=C(CCNS(=O)(=O)c1cccc2nonc12)N1CCN(c2ccc(Br)cn2)CC1 [Compound 13a]

IC50 [1]: 4.5 µM
fold loss in potency/activity relative to ML012 [1]: 4 fold
Compound: O=C(CCNS(=O)(=O)c1cccc2nonc12)N1CCN(c2ccncc2)CC1 [Compound 13b]

hM1 antagonist activity in words [1]: complete loss of activity
Compound: O=C(CCNS(=O)(=O)c1cccc2ccccc12)N1CCN(c2ccc(Br)cn2)CC1 [Compound 13i]

hM1 antagonist activity in words [1]: inactive
Compound: O=C(CCNS(=O)(=O)c1cccc2scnc12)N1CCN(c2ccncc2)CC1 [Compound 13j]

selectivity for the M1 receptor over the M2–5 subtypes [2]: very high selectivity
CNS concentrations / CNS exposure [3]: undetectable
EC50 [4]: 180 nM
in vitro DMPK prediction of clearance [5]: high clearance
Compound: O=C(CCNS(=O)(=O)c1cccc2ncccc12)N1CCN(c2ccncc2)CC1 [Compound 13l]
